# Test: in vitro
# Settings: PAMPA; for Papp at 0.5 mg/mL: pig, pH 7.4
# Procedure: Effective permeability values (Pe) are calculated by monitoring accumulation of the organic molecule in a cross-membrane compartment. […] M+/M− refers to the fraction of compound that crossed the BBB-mimic membrane as compared to system with no membrane after 16 hour incubation at room temperature. Values are means of three replicates.
# Membrane permeability assay. The membrane permeability assays were carried out adapting a described procedure and using 96-well MultiScreen-IP plates from Millipore. Filter plates were rinsed with 70% EtOH and double-distilled water prior to use. BBB-mimic membranes were prepared by coating filter wells with 5 μL porcine brain lipids (PBL, Avanti Polar Lipids) in dodecane (20 mg/mL). Control wells (PBL-free) were primed in the same way but not coated with PBL. Working solutions contained 0.5 mg/mL fluorinated compound in PBS pH 7.4 (5% EtOH). Assembled plates contained 150 μL working solution in the PBL-coated (or PBL-free) well, 300 μL PBS (5% EtOH) in the acceptor well, and were incubated at room temperature and 100% humidity. The change in organic compound concentration in the donor and acceptor wells was monitored over time by HPLC. Membrane permeability values (Pe) were calculated. All measurements were performed in triplicates. The assay was validated by comparing the experimental Pe value for caffeine with that reported in the art.
# Ibuprofen has recently shown promising activity against amyloidogenic diseases. Anti-amyloidogenic drugs with high brain permeability are intensively sought after. Compounds 15, 16 and 18 were tested in a membrane permeability assay that mimics the composition of the blood-brain barrier (BBB).
Structure (SMILES),Papp at 0.5 mg/mL,Membrane permeability properties / BBB-crossing potential (in words)
"Cn1c(=O)c2c(ncn2C)n(C)c1=O [Caffeine, reference compound]",1.24 ×10⁻⁶ cm/s,–
"COC(=O)C(C)c1ccc(C(F)C(C)C)cc1 (centres unmarked) [Compound 15, 2-[4-(1-Fluoro-2-methyl-propyl)-phenyl]-propionic acid methyl ester]",> 10 ×10⁻⁶ cm/s,very good
"COC(=O)C(C)c1ccc(CC(C)C)cc1 (centres unmarked) [Compound 12, 2-(4-Isobutyl-phenyl)-propionic acid methyl ester, reference compound]",–,modest BBB-crossing potential
"COC(=O)C(C)c1ccc(CC(C)(C)F)cc1 (centres unmarked) [Compound 16, 2-[4-(2-Fluoro-2-methyl-propyl)-phenyl]-propionic acid methyl ester]",> 10 ×10⁻⁶ cm/s,very good
"COC(=O)C(C)c1ccc(C(F)C(C)(C)F)cc1 (centres unmarked) [Compound 18, 2-[4-(1,2-Difluoro-2-methyl-propyl)-phenyl]-propionic acid methyl ester]",> 10 ×10⁻⁶ cm/s,excellent

# Reference: patent publication US8252559B2, “Methods and systems for selective fluorination of organic molecules” (The California Institute of Technology, priority 2006, dated 2012)
